Source: US20220348590A1, “CYCLOOXYGENASE-2 INHIBITORS AND USES THEREOF” (The Board Institute, Inc., priority 2019, published 2022)
Where two headings read alike, the source gives them in different places.

Target: T1, human recombinant COX2 (hCOX2) (UniProt P35354)
T1 sequence (P35354 1-604): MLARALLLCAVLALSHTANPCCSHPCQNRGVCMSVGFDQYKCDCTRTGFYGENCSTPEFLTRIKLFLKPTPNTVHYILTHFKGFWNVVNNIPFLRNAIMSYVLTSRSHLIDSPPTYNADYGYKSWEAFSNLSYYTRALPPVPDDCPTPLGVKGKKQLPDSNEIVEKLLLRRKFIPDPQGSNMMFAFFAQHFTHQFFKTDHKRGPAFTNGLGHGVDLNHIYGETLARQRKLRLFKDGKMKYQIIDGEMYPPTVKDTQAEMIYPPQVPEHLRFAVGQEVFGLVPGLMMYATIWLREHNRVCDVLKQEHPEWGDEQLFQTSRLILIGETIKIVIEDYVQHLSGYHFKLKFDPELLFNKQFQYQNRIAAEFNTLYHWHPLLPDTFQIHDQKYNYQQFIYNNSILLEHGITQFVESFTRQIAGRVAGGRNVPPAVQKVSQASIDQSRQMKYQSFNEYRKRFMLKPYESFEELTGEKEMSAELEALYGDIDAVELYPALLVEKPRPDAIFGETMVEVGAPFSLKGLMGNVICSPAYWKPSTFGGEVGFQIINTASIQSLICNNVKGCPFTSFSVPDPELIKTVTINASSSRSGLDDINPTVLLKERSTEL
Test: LCMS-based COX2 enzymatic inhibition assay (PGE2 quantification)
Assay type: biochemical
Set-up: COX2 2 minutes pge2/pge2d4 area ratio Avg; other: 2 minutes; readout pge2/pge2d4 area ratio; average; COX2 2 minutes pge2/pge2d4 area ratio Avg; LLE; average LLE; COX2 2 minutes pge2 area (counts) Avg; readout pge2 area (counts); other: 2 min; "ovine COX2 (oCOX2), human recombinant COX2 (hCOX2)"
Details: for IC50: average
Protocol: We have adapted a previously reported cyclooxygenase enzymatic assay utilizing LCMS quantification of PGE2 as the product of COX-1 and COX2 catalyzed conversion of arachidonic acid to evaluate the binding properties of newly synthesized ligands [Cao, 2011]. These optimized and miniaturized (384-well plates) LCMS-based COX-1 and COX2 enzymatic assays enabled us to quickly evaluate newly synthesized ligands for COX2 binding affinity and selectivity vs COX-1. Using a shorter ligand-enzyme incubation time in the LCMS assay (2 minutes vs 10 minutes) also permitted us to prioritize ligands with faster binding kinetics. Considering the relatively slow on-rate kinetics of known coxibs, due to their 3-step binding mechanism [Marnett, 2009], we believe that optimizing this critical parameter will be key to the successful development of a COX2 PET tracer. Using these enzymatic assays, we have evaluated>200 newly synthesized ligands against COX2 and >20 ligands against COX-1. Another critical property necessary for a good PET radiotracer is to have low non-specific binding (NSB) to increase the free fraction and maximize the signal to noise ratio. This property can be evaluated using in-vitro protein binding assays, and we have now evaluated>50 newly synthesized ligands in mouse, rat and human plasma protein binding (PPB) assays as well as >15 ligands in a mouse brain protein binding (BPB) assay.
Ovine COX-1 (oCOX-1), ovine COX2 (oCOX2), human recombinant COX2 (hCOX2), arachidonic acid, PGE2, d4-PGD2, and […] (labeled with deuterium atoms at positions 3 and 4) were purchased from Cayman Chemicals (Ann Arbor, Mich.). The cofactors (−)epinephrine and hematin, and the COX inhibitors indomethacin, resveratrol and diclofenac were purchased from Sigma-Aldrich (St. Louis, Mo.). Celecoxib was purchased from 3B PharmaChem International (Wuhan, China). All organic solvents were HPLC grade or better and were purchased from Thermo Fisher (Hanover Park, Ill.). Formic acid was purchased from EMD Chemicals (San Diego, Calif.). Purified water was prepared by using a Millipore Milli-Q purification system (Millipore, Billerica, Mass.). All other chemicals and solvents were ACS reagent grade, unless stated otherwise.
In an Eppendorf tube, 146 μL of 100 mM Tris.HCl (pH 8.0) buffer, 2 μL of 100 μM hematin (co-factor) and 10 μL of 40 mM L-epinephrine (co-factor) were mixed at room temperature. Next, 20 μL of Tris.HCl (pH 8.0) buffer containing 0.2 μg COX2 or 0.1 μg COX-1 (approximately 1 unit of enzyme; 1 unit COX utilizes 1 nmol 02/mg/min at 37° C.) was added, and the solution was incubated at room temperature for 2 min. A 2 μL aliquot of the COX inhibitor in DMSO was added to the enzyme solution and preincubated at 37° C. for 10 min. Negative controls were identical except that 2 μL aliquots of DMSO without inhibitor were used instead.
Each COX reaction was initiated by adding 20 μL of arachidonic acid in Tris.HCl (pH 8.0) buffer to give a final concentration of 5 μM; and the reaction was terminated after 2 min by adding 20 μL of 2.0 M HCl. The surrogate standards d4-PGE2 and d4-PGD2 (10 μL aliquot of 50 ng/mL solution in methanol) were added to correct for errors or degradation during sample handling and for variation in injection volume or instrument response during LC-MS-MS. After 30 min, PGE2, PGD2 and their surrogate standards were extracted from each incubation mixture using 800 μL hexane/ethyl acetate (50:50, v/v). The organic phase was removed, evaporated to dryness, and reconstituted in 100 μL methanol/water (50:50, v/v) for analysis using LC-MS-MS.
The concentration of PGE2 in each sample was measured using LC-MS-MS, and the percent of COX inhibition by each test solution was determined by comparing the amount of PGE2 produced in the experiment with that produced in the negative control incubation. The formation of PGD2 was measured for quality control purposes, since the levels of PGD2 should be proportional to those of PGE2. […]

[1] = 2 minutes, readout pge2/pge2d4 area ratio, average LLE
[2] = 2 minutes, readout pge2/pge2d4 area ratio, read-out: COX2 2 minutes pge2/pge2d4 area ratio Avg. IC50
[3] = 2 minutes, readout pge2 area (counts), average LLE
[4] = 2 minutes, readout pge2 area (counts), read-out: COX2 2 minutes pge2 area (counts) Avg. IC50
[5] = read-out: COX2 2 minutes pge2/pge2d4 area ratio Avg. IC50 (microM), 2 minutes, readout pge2/pge2d4 area ratio

| SMILES | COX2 2 minutes pge2/pge2d4 area ratio Avg. LLE [1] | IC50 [2] | COX2 2 minutes pge2 area (counts) Avg. LLE [3] | IC50 [4] | COX2 10 minutes pge2 area (counts) Avg. LLE (10 minutes, readout pge2 area (counts), average LLE) | IC50 (10 minutes, readout pge2 area (counts), read-out: COX2 10 minutes pge2 area (counts) Avg. IC50) | IC50 [5] | IC50 (read-out: COX2 2 minutes pge2/pge2d4 area ratio Avg. IC50 (microM), 2 minutes, readout pge2/pge2d4 area ratio, 2 min) |
| --- | --- | --- | --- | --- | --- | --- | --- | --- |
| CS(=O)(=O)c1ccc(-c2cncc(Oc3ccccc3)n2)cc1 [Compound 132] | 4.451 | 0.158 µM | 3.942 | 0.975 µM | – | – | – | – |
| CS(=O)(=O)c1ccc(-c2cnnc(NCc3cccs3)n2)cc1 [Compound 114] | 5.0904 | 0.104 µM | 5.034 | 0.131 µM | – | – | – | – |
| CS(=O)(=O)c1ccc(-c2cnnc(OCc3ccco3)c2)cc1 [Compound 255] | 3.111 | 4.01 µM | 3.485 | 1.93 µM | – | – | – | – |
| COc1ncc(NCc2ccno2)nc1-c1ccc(S(C)(=O)=O)cc1 [Compound 183] | 5.678 | 0.566 µM | 5.655 | 0.596 µM | – | – | – | – |
| CS(=O)(=O)c1ccc(-n2nnc3ccc(NCc4cccs4)nc32)cc1 [Compound 139] | – | 0.207 µM | – | 0.219 µM | – | – | – | – |
| COc1ncc(-c2ccc(S(C)(=O)=O)cc2)nc1NCc1ccncc1 [Compound 230] | 4.383 | 2.38 µM | 4.367 | 2.48 µM | – | – | – | – |
| CCCCOc1cncc(-c2ccc(S(C)(=O)=O)cc2)n1 [Compound 280] | 3.204 | – | – | – | 4.508 | 0.258 µM | 5.2 µM | – |
| CS(=O)(=O)c1ccc(-n2ccc3ccc(C(=O)c4cccs4)nc32)cc1 [Compound 151, [1-(4-methylsulfonylphenyl)pyrrolo[2,3-b]pyridin-6-yl]-(2-thienyl)methanone] | – | 0.293 µM | – | 0.233 µM | – | – | – | – |
| CN1CC[C@@H](CNc2cncc(-c3ccc(S(C)(=O)=O)cc3)n2)C1 [Compound 306] | – | – | 4.594 | – | – | – | 5.2 µM | – |
| CS(=O)(=O)c1ccc(-c2cnc3cnn(Cc4cccs4)c3c2)cc1 [Compound 244] | 1.703 | 3.15 µM | – | – | – | – | – | – |
| COc1cc(S(C)(=O)=O)ccc1-c1cncc(NCc2ccoc2)n1 [Compound 272] | 3.674 | – | 3.674 | – | – | – | 5.2 µM | – |
| C[C@@H](Nc1cccc(-c2ccc(S(C)(=O)=O)cc2)n1)c1ccoc1 (single isomer, unassigned) [Compound 112] | 3.614 | 0.102 µM | 3.525 | 0.108 µM | – | – | – | – |
| COc1ncc(NCc2cncs2)nc1-c1ccc(S(C)(=O)=O)cc1 [Compound 163] | 4.491 | 0.409 µM | 4.597 | 0.319 µM | – | – | – | – |
| CS(=O)(=O)c1ccc(-c2cncc(CCc3cccs3)n2)cc1 [Compound 225] | 3.328 | 2 µM | 3.249 | 2.4 µM | – | – | – | – |
| CS(=O)(=O)c1ccc(-c2cccc(C3CC3c3ccoc3)n2)cc1 (single isomer, unassigned) [Compound 322, 2-[2-(furan-3-yl)cyclopropyl]-6-(4-methanesulfonylphenyl)pyridine] | – | – | – | – | – | – | – | 5.2 µM |
| COc1ncc(NCc2ccccn2)nc1-c1ccc(S(C)(=O)=O)cc1 [Compound 228] | 4.528 | 2.12 µM | 4.5985 | 1.8 µM | – | – | – | – |
| CS(=O)(=O)c1ccc(-c2cnc(C(F)(F)F)c(OCc3cccs3)n2)cc1 [Compound 118] | 3.641 | 0.114 µM | 3.56 | 0.153 µM | – | – | – | – |
| CS(=O)(=O)c1ccc(-c2cccc(NCc3nccs3)n2)cc1 [Compound 105] | 3.99 | 0.0915 µM | 3.918 | 0.105 µM | – | – | – | – |
